Experimental data as given in PMC11372076, “A dual inhibitor of PIP5K1C and PIKfyve prevents SARS-CoV-2 entry into cells” (Experimental & Molecular Medicine, 2024).

Columns and labels:
Format in all cases: cell-based
[1] = system: SARS-CoV-2 spike protein (Spike-HexaPro)
RPE1 cells [2] = experiment: PtdIns(4,5)P2 level by flow cytometry; conditions: overnight
Method: CUGAUCAAGAU G A -3 and PIKfyve#2 siRNA 5'-
[…] -3'. siRNA oligonucleotides were purchased from Genolution, Sigma- Aldrich and Integrated DNA Technologies.
These siRNAs were transfected into the cell using lipofectamine RNAiMAX (Invitrogen, 13778150) following manufacturer ’s protocol.
RPE1 cells were treated with UNI418 at indicated concentration for over-night.
After that, the image was taken by EVOS M5000 (Thermo Fisher Scientific).
RPE1 cells were treated with UNI418 at the different concentration during the time. Live cell images were taken by Lionheart LX Automated Microscope and analyzed in Gen5 (Agilent).
RPE1 cells were treated with indicated doses of UNI418 overnight. To analyze PIP2 level by flow cytometry, trypsinized cells were fixed with 4% paraformaldehyde for 10 min at room temperature. […] Cells were washed three times with 1% BSA-PBS and incubated with the fluorescence- conjugated secondary antibody Alexa Fluor® 488 AffiniPure Goat Anti-Mouse IgG (H+L) (Jackson ImmunoResearch,111- 545- 003) for 1h at room temperature analyzed by BD Accuri C6 Plus flow cytometer (BD Biosciences). […]
PtdIns(4,5)P2 level was analyzed by flow cytometry. […] Significance was determined by Student’s t-test, **p < 0.01. b Representative flow cytometry graph for PIP2 level after indicated dose of […]

RPE1 cells [3] = experiment: Autophagic flux assay (LC3-II turnover with bafilomycin A1); conditions: 1 μM, 2 h, normal growth media
From the text: Fig. 2 UNI418 inhibits autophagy. a Western blot analysis of p62, LC3B-I, LC3B-II and GAPDH in the presence of UNC3230, apilimod and UNI418. b Immunofluorescence staining with LC3B (green) and p62 (red) antibodies upon treatment with UNC3230, apilimod and UNI418, and images within the white rectangular boxes are magnified on the right side. Scale bar, 20 µm. c The area of fluorescence intensity from immunofluorescence images (b) was quantified after UNC3230, apilimod and UNI418 treatments. d, e Quantification of autophagic flux under normal conditions and under HBSS-induced starvation conditions with or without UNI418 treatment. […]
The whole cell extracts were prepared by lysis of harvested cells with M -PER Mammalian protein extraction reagent (Thermo Fisher Scientific). The protein concentrations were determined by Bradford protein assay (Bio- Rad). […] The images were obtained and quantified by Fusion solo ChemiDoc system (Vilber).
Autophagic flux assay was analyzed essentially as previously described1,2.
Briefly, RPE1 cells were treated with UNI418 (0, 0.5, or 1 µM) for 2 h with/without bafilomycin A1 to inhibit lysosomal degradation under normal growth media or HBSS. […] The LC3- II bands were quantified using Fusion Solo ChemiDoc system (Vilber) and normalized to GAPDH bands. […]

RPE1 cells [4] = experiment: LAMP1 accumulation (Western blot and immunofluorescence)
From the text: Supplementary Fig. 9 UNI418 is not a simple lysosomotropic agent. a Western blot of LAMP1 with UNI418 and Chloroquine. GAPDH was used as a loading control. NT, not treated. b Immunofluorescence images showing accumulation of LAMP1 in RPE1 cells with the indicated concentration of Chloroquine and UNI418 treatment, and images within the white rectangular boxes are zoomed in on the right side. Scale bar, 20 µm. c The mean of intensity in individual cell was quantified. Data presented as mean ± SEMs, n >20.
Significance was determined by Student’s t-test, ***p < 0.001.
(1 picture or pasted object on this page, not shown here)

For `c1ccc(-c2cc(Nc3nc(-c4ccncc4)nc4ccccc34)n[nH]2)cc1` [UNI418, N -(5-phenyl-1 H -pyrazol-3-yl)-2-(4-pyridinyl)-4-quinazolinamine], the “delay in generation of the mature Spike-HexaPro cleavage product” value [1] was 3 h, the “levels of PtdIns(4,5)P2” value (RPE1 cells [2]) was “reduced” and the autophagic flux (RPE1 cells [3]) was “markedly inhibited”. For the same molecule, the “accumulation of LAMP1 or LAMP1-positive lysosomes” value (RPE1 cells [4]) was “did not cause the accumulation”.
